Structures are written as SMILES. Where a SMILES comes first, the peptide text is derived from it. [ ]: non-standard residue; d: D form. The star is where a group is joined. Octanoyl = CCCCCCCC(=O)*; Dap = NC[C@H](N)C(=O)O; Octyl = CCCCCCCC*

The test system of this assay is normal chow-fed C57BL/6J male mice. The assay is described as follows: Effect on food intake in normal mice (HM-2 automated monitoring). Format: in vivo, mouse. The settings on record: for Accumulated FI at 6h: 300 nmol/kg s.c. once, light phase 0-6 h, modified protocol (food access re-opened 2 h after dosing). As to the method: Normal chow-fed C57BL/6J male mice were used. The mice were kept in an automated food- and water-intake monitoring system (HM-2) which allows automated on-line measurements of accumulated food intake (FI) and other parameters. Food intake was monitored by the HM-2 system up to 24 h after dosing. The mice were kept 6 per cage, and each dosing group consisted of 6 animals.
In the initial experimental set-up with ghrelin as test compound, animals were allowed free access to food directly after treatment, and the resulting data for food intake are shown in FIG. 1A herein (vide infra).
In order to further investigate the “duration of action” of ghrelin and the other test compounds a new protocol was defined. In the modified protocol the gate to the food chambers was closed prior to dosing with vehicle or test compound and was re-opened 2 hours thereafter. The resulting data for food intake following dosing with ghrelin or vehicle are summarized in FIG. 1B (vide infra), while the corresponding data for food intake following dosing with each of the of the other four test compounds. (Compound 16, 22, 23 or 43 of the invention) or with vehicle are summarized in FIG. 2A (data for monitoring up to 6 hours after dosing) and FIG. 2B (data for monitoring up to 24 hours after dosing).

In the case of `CCCCCCCCOC[C@H](NC(=O)[C@H](CO)NC(=O)[C@@H]1CCCN1)C(=O)N[C@@H](Cc1ccccc1)C(=O)N[C@@H](CC(C)C)C(=O)N[C@@H](CO)C(=O)N1CCC[C@H]1C(=O)N[C@@H](CCC(=O)O)C(=O)N[C@@H](Cc1c[nH]cn1)C(=O)N[C@@H](CO)C(=O)N[C@@H](CCCNC(=N)N)C(=O)N[C@H](C(=O)N[C@@H](CO)C(=O)N[C@@H](CO)C(=O)N[C@@H](CCCNC(=N)N)C(=O)N[C@@H](CCCCN)C(=O)N[C@@H](CCC(=O)O)C(=O)N[C@@H](CO)C(=O)N[C@@H](CO)C(=O)N[C@@H](CO)C(=O)N1CCC[C@H]1C(=O)N1CCC[C@H]1C(=O)N[C@@H](C)C(=O)N[C@@H](CCCCN)C(=O)N[C@@H](CC(C)C)C(=O)N[C@@H](CO)C(=O)N1CCC[C@H]1C(=O)N[C@@H](CCCNC(=N)N)C(N)=O)C(C)C` [Compound 47] (H-PSS(Octyl)FLSPEHSRVSSRKESSSPPAKLSPR-NH2), the “Accumulated FI at 6h” value was found to be 1.55 ± 0.16 g. As for `CCCCCCCC(=O)NC[C@H](NC(=O)[C@H](CO)NC(=O)[C@@H]1CCCN1)C(=O)N[C@@H](Cc1ccccc1)C(=O)N[C@@H](CC(C)C)C(=O)N[C@@H](CO)C(=O)N1CCC[C@H]1C(=O)N[C@@H](Cc1ccc(O)cc1)C(N)=O` [Compound 42, H-PS-Dap(N-octanoyl)-FLSPY-NH2] (H-PS[Dap](Octanoyl)FLSPY-NH2), the “Accumulated FI at 6h” value is reported as 0.2 ± 0.08 g. Same read-out and setting: for `CCCCCCCCOC[C@H](NC(=O)[C@H](CO)NC(=O)[C@@H]1CCCN1)C(=O)N[C@@H](Cc1ccccc1)C(=O)N[C@@H](CC(C)C)C(=O)N[C@@H](CO)C(=O)N1CCC[C@H]1C(=O)N[C@@H](CCC(=O)O)C(=O)N[C@@H](Cc1c[nH]cn1)C(=O)N[C@@H](CO)C(=O)N[C@@H](CCCNC(=N)N)C(=O)N[C@H](C(=O)N[C@@H](CO)C(=O)N[C@@H](CO)C(=O)N[C@@H](CCCNC(=N)N)C(=O)N1CCC[C@H]1C(=O)N[C@@H](CCC(=O)O)C(=O)N[C@@H](CO)C(=O)N[C@@H](CO)C(=O)N[C@@H](CO)C(=O)N1CCC[C@H]1C(=O)N1CCC[C@H]1C(=O)N[C@@H](C)C(=O)N[C@@H](CCCCN)C(=O)N[C@@H](CC(C)C)C(=O)N[C@@H](CO)C(=O)N1CCC[C@H]1C(=O)N[C@@H](CCCNC(=N)N)C(N)=O)C(C)C` [Compound 49] (H-PSS(Octyl)FLSPEHSRVSSRPESSSPPAKLSPR-NH2) the value was 0.6 ± 0.09 g.

As to `CCCCCCCCOC[C@H](NC(=O)[C@H](CO)NC(=O)[C@@H]1CCCN1)C(=O)N[C@@H](Cc1ccccc1)C(=O)N[C@@H](CC(C)C)C(=O)N[C@@H](CO)C(=O)N1CCC[C@H]1C(=O)N[C@@H](CCC(=O)O)C(=O)N[C@@H](Cc1c[nH]cn1)C(=O)N[C@@H](CO)C(=O)N[C@@H](CCCNC(=N)N)C(=O)N[C@H](C(=O)N[C@@H](CO)C(=O)N[C@@H](CO)C(=O)N[C@@H](CCCNC(=N)N)C(=O)N[C@@H](CCCCN)C(=O)N[C@@H](CCC(=O)O)C(=O)N[C@@H](CO)C(=O)N[C@@H](CO)C(=O)N[C@@H](CCCCN)C(=O)N1CCC[C@H]1C(=O)N1CCC[C@H]1C(=O)N[C@@H](C)C(=O)N[C@@H](CCCCN)C(=O)N[C@@H](CC(C)C)C(=O)N[C@@H](CO)C(=O)N1CCC[C@H]1C(=O)N[C@@H](CCCNC(=N)N)C(N)=O)C(C)C` [Compound 45] (H-PSS(Octyl)FLSPEHSRVSSRKESSKPPAKLSPR-NH2), the “Accumulated FI at 6h” value was 0.38 ± 0.13 g.

In the case of `CCCCCCCCOC[C@H](NC(=O)[C@H](CO)NC(=O)[C@@H]1CCCN1)C(=O)N[C@@H](Cc1ccccc1)C(=O)N[C@@H](CC(C)C)C(=O)N[C@@H](CO)C(=O)N1CCC[C@H]1C(=O)N[C@@H](CCC(=O)O)C(=O)N[C@@H](Cc1c[nH]cn1)C(=O)N[C@@H](CO)C(=O)N[C@@H](CCCNC(=N)N)C(=O)N1CCC[C@H]1C(=O)N[C@@H](CO)C(=O)N[C@@H](CO)C(=O)N[C@@H](CCCNC(=N)N)C(N)=O` [Compound 48] (H-PSS(Octyl)FLSPEHSRPSSR-NH2), the “Accumulated FI at 6h” value was determined as 0 ± 0 g. Take `CCCCCCCC(=O)NC[C@H](NC(=O)[C@H](CO)NC(=O)[C@@H]1CCCN1)C(=O)N[C@@H](Cc1ccccc1)C(=O)N[C@@H](CC(C)C)C(=O)N[C@@H](CO)C(=O)N1CCC[C@H]1C(=O)N[C@@H](CCC(=O)O)C(=O)N[C@@H](Cc1c[nH]cn1)C(=O)N[C@@H](CCC(N)=O)C(=O)N[C@@H](CCCNC(=N)N)C(=O)N[C@H](C(=O)N[C@@H](CCC(N)=O)C(=O)N[C@@H](CCC(N)=O)C(=O)N[C@@H](CCCNC(=N)N)C(=O)N[C@@H](CCCCN)C(=O)N[C@@H](CCC(=O)O)C(=O)N[C@@H](CO)C(=O)N[C@@H](CCCCN)C(=O)N[C@@H](CCCCN)C(=O)N1CCC[C@H]1C(=O)N1CCC[C@H]1C(=O)N[C@@H](C)C(=O)N[C@@H](CCCCN)C(=O)N[C@@H](CC(C)C)C(=O)N[C@@H](CCC(N)=O)C(=O)N1CCC[C@H]1C(=O)N[C@@H](CCCNC(=N)N)C(N)=O)C(C)C` [Compound 22]: the “Accumulated FI at 6h” value stood at 1.87 ± 0.23 g. The “Effects on FI during the dark period” value (300 nmol/kg s.c., modified protocol, 0-24 h monitoring (FIG. 2B)) is recorded as “significant effects”. Turning to `CCCCCCCCOC[C@H](NC(=O)[C@H](CO)NC(=O)[C@@H]1CCCN1)C(=O)N[C@@H](Cc1ccccc1)C(=O)N[C@@H](CC(C)C)C(=O)N[C@@H](CO)C(=O)N1CCC[C@H]1C(=O)N[C@@H](CCC(=O)O)C(=O)N[C@@H](Cc1c[nH]cn1)C(=O)N[C@@H](CO)C(=O)N[C@@H](CCCNC(=N)N)C(=O)N1CCC[C@H]1C(=O)N[C@@H](CO)C(=O)N[C@@H](CO)C(=O)N[C@@H](CCCNC(=N)N)C(=O)N1CCC[C@H]1C(=O)N[C@@H](CCC(=O)O)C(=O)N[C@@H](CO)C(=O)N[C@@H](CO)C(=O)N[C@@H](CO)C(=O)N1CCC[C@H]1C(=O)N1CCC[C@H]1C(=O)N[C@@H](C)C(=O)N[C@@H](CCCCN)C(=O)N[C@@H](CC(C)C)C(=O)N[C@@H](CO)C(=O)N1CCC[C@H]1C(=O)N[C@@H](CCCNC(=N)N)C(N)=O` [Compound 50] (H-PSS(Octyl)FLSPEHSRPSSRPESSSPPAKLSPR-NH2), the “Accumulated FI at 6h” value is reported as 0.19 ± 0.05 g. As to `CCCCCCCCCCCCCCCC(=O)NCCCC[C@H](NC(=O)[C@H](CO)NC(=O)[C@H](CCC(=O)O)NC(=O)[C@H](CCCCN)NC(=O)[C@H](CCCNC(=N)N)NC(=O)[C@H](CCC(N)=O)NC(=O)[C@H](CCC(N)=O)NC(=O)[C@@H](NC(=O)[C@H](CCCNC(=N)N)NC(=O)[C@H](CCC(N)=O)NC(=O)[C@H](Cc1c[nH]cn1)NC(=O)[C@H](CCC(=O)O)NC(=O)[C@@H]1CCCN1C(=O)[C@H](CO)NC(=O)[C@H](CC(C)C)NC(=O)[C@H](Cc1ccccc1)NC(=O)[C@H](COCCCCCCCC)NC(=O)[C@H](CO)NC(=O)[C@@H]1CCCN1)C(C)C)C(=O)N[C@@H](CCCCN)C(=O)N1CCC[C@H]1C(=O)N1CCC[C@H]1C(=O)N[C@@H](C)C(=O)N[C@@H](CCCCN)C(=O)N[C@@H](CC(C)C)C(=O)N[C@@H](CCC(N)=O)C(=O)N1CCC[C@H]1C(=O)N[C@@H](CCCNC(=N)N)C(=O)O` [Compound 16], the “Accumulated FI at 6h” value is on record as 0.65 ± 0.1 g. As for `CCCCCCCCCCCCCCCC(=O)N[C@@H](CCC(=O)NCCCC[C@H](NC(=O)[C@H](CO)NC(=O)[C@H](CCC(=O)O)NC(=O)[C@H](CCCCN)NC(=O)[C@H](CCCNC(=N)N)NC(=O)[C@H](CCC(N)=O)NC(=O)[C@H](CCC(N)=O)NC(=O)[C@@H](NC(=O)[C@H](CCCNC(=N)N)NC(=O)[C@H](CCC(N)=O)NC(=O)[C@H](Cc1c[nH]cn1)NC(=O)[C@H](CCC(=O)O)NC(=O)[C@@H]1CCCN1C(=O)[C@H](CO)NC(=O)[C@H](CC(C)C)NC(=O)[C@H](Cc1ccccc1)NC(=O)[C@H](COCCCCCCCC)NC(=O)[C@H](CO)NC(=O)[C@@H]1CCCN1)C(C)C)C(=O)N[C@@H](CCCCN)C(=O)N1CCC[C@H]1C(=O)N1CCC[C@H]1C(=O)N[C@@H](C)C(=O)N[C@@H](CCCCN)C(=O)N[C@@H](CC(C)C)C(=O)N[C@@H](CCC(N)=O)C(=O)N1CCC[C@H]1C(=O)N[C@@H](CCCNC(=N)N)C(N)=O)C(=O)O` [Compound 43], the “Accumulated FI at 6h” value is 0.37 ± 0.14 g.

For the compound `CCCCCCCC(=O)OC[C@H](NC(=O)[C@H](CO)NC(=O)CN)C(=O)N[C@@H](Cc1ccccc1)C(=O)N[C@@H](CC(C)C)C(=O)N[C@@H](CO)C(=O)N1CCC[C@H]1C(=O)N[C@@H](CCC(=O)O)C(=O)N[C@@H](Cc1c[nH]cn1)C(=O)N[C@@H](CCC(N)=O)C(=O)N[C@@H](CCCNC(=N)N)C(=O)N[C@H](C(=O)N[C@@H](CCC(N)=O)C(=O)N[C@@H](CCC(N)=O)C(=O)N[C@@H](CCCNC(=N)N)C(=O)N[C@@H](CCCCN)C(=O)N[C@@H](CCC(=O)O)C(=O)N[C@@H](CO)C(=O)N[C@@H](CCCCN)C(=O)N[C@@H](CCCCN)C(=O)N1CCC[C@H]1C(=O)N1CCC[C@H]1C(=O)N[C@@H](C)C(=O)N[C@@H](CCCCN)C(=O)N[C@@H](CC(C)C)C(=O)N[C@@H](CCC(N)=O)C(=O)N1CCC[C@H]1C(=O)N[C@@H](CCCNC(=N)N)C(=O)O)C(C)C` [Compound 1, reference compound], the “Effect on food intake (FI)” value (300 nmol/kg s.c., access to food delayed for 2 h after administration (FIG. 1B)) was “essentially lost”. The “Food intake (FI) compared to PBS treated controls” value (300 nmol/kg s.c., free access to food immediately after dosing (FIG. 1A)) is reported as “increased FI”.

The values are drawn from patent US9657062B2, “Ghrelin analogues” (Zealand Pharma A/S, priority 2012, dated 2017).
